# Paper doi:10.1101/2022.03.30.486313v1 (biorxiv, 2022)
# Columns and labels:
# [1] = target: T1, SARS-CoV-2 PLpro (Severe acute respiratory syndrome coronavirus 2, UniProt P0DTD1); assay: biochemical
# [2] = target: T1, SARS-CoV-2 PLpro; assay: biochemical; remark: listed apart in the source
Compound,IC50 [1] [µM],EC50 [2] [µM]
"CN(C)CCSSCCN(C)C [DMGA, bis[2-(N,N-dimethylamino)ethyl] disulfide]",9.4,–
O=S(=O)(O)CCSSCCS(=O)(=O)O [Dimesna],–,1050
Cc1ncc(CSSCc2cnc(C)c(O)c2CO)c(CO)c1O [Pyritinol],–,18
